Assay results: patent USRE46907E1, “Suppression of cancer growth and metastasis using nordihydroguaiaretic acid derivatives with metabolic modulators” (THE JOHNS HOPKINS UNIVERSITY, priority 2008, dated 2018)

System: 67NR cells
Experiment: 67NR tumor-bearing Balb/c mice (life-span)
Format: in vivo, mouse
Conditions: 5×10^4 cells, M4N 1 mg/shot, Rottlerin 100 μg/shot, three days a week from day 8
Procedure: Animals: Female Balb/e mice were obtained from Charles River Laboratories (Wilmington, Mass.). M4N and Rottlerin were dissolved into a solvent, CPE (25/30) solvent system supplied by Erimos Pharmaceutical, L.L.C. (Raleigh, N.C.) and injected into mice either intravenously or intraperitoneally, T-cell deficient male nude mice (nu/nu) were obtained from Charles River Laboratories (Wilmington, Mass.). M4N and Ly294002 were dissolved into a solvent, CPE (25/30) solvent system supplied by Erimos Pharmaceutical, L.L.C. (Raleigh, N.C.) and injected into mice intravenously.
Tumor inoculation: Either 4T1 or 67NR cells were grown as described above. Cells growing subconfluently were collected and resuspended into the tissue culture medium minus fetal bovine serum and antibiotics, After counting the number of the cells, the cell concentration was adjusted. Twenty μl of the solution containing a selected number of cancer cells (either 5×10^3 or 5×10^4 cells) was injected into each fat pad of a pair of mammary glands located close to lower limbs. Tumor size was measured by weighing tumors extracted from mouse cadavers.

## COc1ccc(C[C@@H](C)[C@@H](C)Cc2ccc(OC)c(OC)c2)cc1OC [M4N, tetra-O-methyl nordihydroguaiaretic acid]
  life-span of 67NR-bearing mice: didn't have much effect on the life-span
